Measured values taken from US20230416249A1, “N-[2-({4-[3-(ANILINO)-4-OXO-4,5,6,7-TETRAHYDRO-1H-PYRROLO[3,2-C]PYRIDIN-2-YL]PYRIDIN-3-YL)OXY)ETHYL]PROP-2-ENAMIDE DERIVATIVES AND SIMILAR COMPOUNDS AS EGFR INHIBITORS FOR THE TREATMENT OF CANCER” (Bayer Aktiengesellschaft, priority 2020, published 2023).

What was measured:
[1] = biological target: T1, mutEGFR (D770_N771insSVD) (Homo sapiens, UniProt P00533, DUP768-770); assay: Exon20-Mutant-EGFR(D770_N771insSVD) kinase assay (TR-FRET); assay type: biochemical; settings: GST-EGFR ins SVD, 2 mM ATP, 15 min pre-incubation
T1 construct: GST-EGFR #3 (SVD between D770 and N771); made in house; host or cells: Sf9 insect cells (baculovirus)
Text: Inhibitory activity of compounds of the present invention against an Epidermal Growth Factor Receptor (EGFR) with an insertion of the amino acids sequence SVD between D770 and N771 was quantified employing the TR-FRET based kinase activity assay as described in the following paragraphs.
A recombinant fusion protein of N-terminal Glutathion-S-Transferase (GST) and a fragment of human EGFR variant (amino acids R669 to A1210 with insertion of the amino acids sequence SVD between D770 and N771 (“EGFR ins SVD”), expressed in Sf9 insect cells and purified via affinity chromatography using Glutathion Sepharose as described above, was used as a kinase. As substrate for the kinase reaction the biotinylated peptide biotin-Ahx-AEEEEYFELVAKKK (SEQ ID NO: 6) (C-terminus in amide form) was used which can be purchased e.g. form the company Biosynthan GmbH (Berlin-Buch, Germany).
For the assay 50 nl of a 100-fold concentrated solution of the test compound in DMSO was pipetted into either a black low volume 384 well microtiter plate or a black 1536 well microtiter plate (both Greiner Bio-One, Frickenhausen, Germany), 2 μl of a solution of EGFR in aqueous assay buffer [50 mM Hepes pH 7.0, 10 mM MgCl2, 1 mM dithiothreitol, 0.5 mM EGTA, 0.3 mM activated sodium ortho-vanadate, 0.005% (w/v) bovine serum albumin, 0.005% (v/v) Tween-20] were added and the mixture was incubated for 15 min at 22° C. to allow pre binding of the test compounds to the enzyme before the start of the kinase reaction. Then the kinase reaction was started by the addition of 3 μL of a solution of adenosine tri phosphate (ATP, 3.33 mM=>final conc. in the 5 μL assay volume is 2 mM) and substrate (1.67 μM=>final conc. in the 5 μL assay volume is 1 μM) in assay buffer and the resulting mixture was incubated for a reaction time of 30 min at 22° C. The concentration of EGFR was adjusted depending of the activity of the enzyme lot and was chosen appropriate to have the assay in the linear range, typical concentration was 15 pg/μl. The reaction was stopped by the addition of 3 μl of a solution of HTRF detection reagents (83.3 nM streptavidine-XL665 [Cisbio Bioassays, Codolet, France] and 1.67 nM PT66-Tb-Cryptate, a terbium-cryptate labelled anti-phospho-tyrosine antibody from Cisbio Bioassays [instead of the PT66 Tb cryptate PT66 Eu Chelate from Perkin Elmer can also be used]) in an aqueous EDTA-solution (133.3 mM EDTA, 0.2% (w/v) bovine serum albumin in 50 mM HEPES pH 7.5).
The resulting mixture was incubated 1 h at 22° C. to allow the binding of the biotinylated phosphorylated peptide to the streptavidine-XL665 and the PT66-Tb-Cryptate. Subsequently the amount of phosphorylated substrate was evaluated by measurement of the resonance energy transfer from the PT66-Tb-Cryptate to the streptavidine-XL665. Therefore, the fluorescence emissions at 620 nm and 665 nm after excitation at 337 nm were measured in a HTRF reader, e.g. a Pherastar (BMG Labtechnologies, Offenburg, Germany) or a Viewlux (Perkin-Elmer). The ratio of the emissions at 665 nm and at […] was taken as the measure for the amount of phosphorylated substrate. The data were normalised (enzyme reaction without inhibitor=0% inhibition, all other assay components but no enzyme=100% inhibition).

Ba/F3-EGFR-insSVD cells = Ba/F3-EGFR-insSVD cells (Homo sapiens, UniProt P00533, DUP768-770, cells depend on it); assay: Ba/F3 cell survival assay (Cell Titer-Glo), EGFR-insSVD; assay type: cell-based; settings: 48 h, without IL-3, 10 ng/mL EGF; read-out: BA/F3 (insSVD) IC50
Sequence of Ba/F3-EGFR-insSVD cells (P00533 with tags, fused parts or gaps DUP768-770): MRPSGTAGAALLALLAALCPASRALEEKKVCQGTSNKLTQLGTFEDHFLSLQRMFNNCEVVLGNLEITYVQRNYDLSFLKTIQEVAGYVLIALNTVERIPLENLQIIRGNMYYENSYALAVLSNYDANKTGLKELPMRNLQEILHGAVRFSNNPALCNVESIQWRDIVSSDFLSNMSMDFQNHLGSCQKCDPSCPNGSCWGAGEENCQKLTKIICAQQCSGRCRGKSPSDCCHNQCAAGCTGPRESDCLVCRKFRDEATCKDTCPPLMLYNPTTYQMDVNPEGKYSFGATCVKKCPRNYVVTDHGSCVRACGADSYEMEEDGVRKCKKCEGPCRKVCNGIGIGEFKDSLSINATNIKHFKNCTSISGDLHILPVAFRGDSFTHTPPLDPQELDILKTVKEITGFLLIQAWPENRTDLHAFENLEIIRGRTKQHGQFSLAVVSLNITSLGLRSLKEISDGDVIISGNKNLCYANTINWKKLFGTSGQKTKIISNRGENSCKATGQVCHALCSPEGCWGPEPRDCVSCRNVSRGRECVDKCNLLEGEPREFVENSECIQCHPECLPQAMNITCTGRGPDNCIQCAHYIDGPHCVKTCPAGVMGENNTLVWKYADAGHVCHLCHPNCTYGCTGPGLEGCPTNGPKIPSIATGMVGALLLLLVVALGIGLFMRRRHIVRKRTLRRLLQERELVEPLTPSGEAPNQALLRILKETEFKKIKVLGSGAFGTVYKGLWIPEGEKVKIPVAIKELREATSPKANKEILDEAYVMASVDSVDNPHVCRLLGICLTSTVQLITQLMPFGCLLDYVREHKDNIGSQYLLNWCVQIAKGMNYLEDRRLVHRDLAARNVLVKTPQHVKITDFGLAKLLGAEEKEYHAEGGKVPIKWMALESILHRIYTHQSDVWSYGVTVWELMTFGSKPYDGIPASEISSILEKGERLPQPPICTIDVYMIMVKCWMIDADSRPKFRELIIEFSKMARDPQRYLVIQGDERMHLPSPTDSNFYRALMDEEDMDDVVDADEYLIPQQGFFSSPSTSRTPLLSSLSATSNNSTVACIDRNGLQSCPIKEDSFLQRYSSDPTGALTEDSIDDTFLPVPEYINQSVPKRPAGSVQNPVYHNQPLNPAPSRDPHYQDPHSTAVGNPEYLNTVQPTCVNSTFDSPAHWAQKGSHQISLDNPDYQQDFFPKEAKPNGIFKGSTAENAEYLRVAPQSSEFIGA
Description: (§1) 293T cells from ATCC were transfected with pBABEpuro expression constructs for WT EGFR or EGFR-insSVD, or EGFR-insSVD T790M, and pCL-Eco packaging vector using Fugene-6 transfection reagent from Promega. Plates were incubated at 37° C. for 48 h. Retrovirus was harvested by filtering the media supernatant through a 0.45 μm filter.
(§2) Ba/F3 cells purchased from DSMZ were grown in RPMI+10% FBS+10 ng/mL IL-3 and infected with filtered retroviral supernatant at a 1:2 dilution. Polybrene was added to a concentration of 8 μg/mL, plates were spun for 90 min, and incubated for 16 h at 37° C. 2 μg/mL puromycin was added to the infected cells 24 h after infection and cells were continually grown in the presence of puromycin and 10 ng/mL IL-3. Following stably expressing Ba/F3 cell lines were generated: Ba/F3-EGFR-WT, Ba/F3-EGFR-insSVD, Ba/F3-EGFR-insSVD T790M, (Ba/F3—vector-control).
(§3) For cell survival assays, Ba/F3 cells were grown to a density of 1-2 million cells per mL, spun down and resuspended in media without IL-3, and replated at a concentration 200,000-500,000 cells per mL. The cells ectopically expressing WT EGFR, EGFR-insSVD, or EGFR-insSVD T790M were plated with 10 ng/mL Millipore Culture grade EGF. The cells ectopically expressing pBABEpuro empty vector were plated with 10 ng/mL IL-3.
(§4) 2 days later, cells were plated in 50 μL in a 384 well plate at a concentration of 4000 cells per well for cells assayed in the absence of IL-3 and 2000 cells per well for cells assayed in the presence of IL-3. 100 nL of compound was added to each well using a 100 nL pin head, and plates were incubated at 37° C. for 48 h.
(§5) Cell viability was measured by adding 20 μL of Cell Titer-Glo Luminescent Cell Viability Reagent diluted 1:3 in PBS. Plates were sealed with Perkin Elmer Top-Seal, inverted several times to mix, and immediately centrifuged at 1000 rpm for 2 min. Plates were incubated in low light conditions for 8-10 min and luminescence was measured.

Ba/F3-EGFR-WT cells = Ba/F3-EGFR-WT cells (Homo sapiens, UniProt P00533); assay: Ba/F3 cell survival assay (Cell Titer-Glo), WT EGFR; assay type: cell-based; settings: 48 h, without IL-3, 10 ng/mL EGF; read-out: BA/F3 (wild type) IC50
Sequence of Ba/F3-EGFR-WT cells (P00533 whole entry, change not shown): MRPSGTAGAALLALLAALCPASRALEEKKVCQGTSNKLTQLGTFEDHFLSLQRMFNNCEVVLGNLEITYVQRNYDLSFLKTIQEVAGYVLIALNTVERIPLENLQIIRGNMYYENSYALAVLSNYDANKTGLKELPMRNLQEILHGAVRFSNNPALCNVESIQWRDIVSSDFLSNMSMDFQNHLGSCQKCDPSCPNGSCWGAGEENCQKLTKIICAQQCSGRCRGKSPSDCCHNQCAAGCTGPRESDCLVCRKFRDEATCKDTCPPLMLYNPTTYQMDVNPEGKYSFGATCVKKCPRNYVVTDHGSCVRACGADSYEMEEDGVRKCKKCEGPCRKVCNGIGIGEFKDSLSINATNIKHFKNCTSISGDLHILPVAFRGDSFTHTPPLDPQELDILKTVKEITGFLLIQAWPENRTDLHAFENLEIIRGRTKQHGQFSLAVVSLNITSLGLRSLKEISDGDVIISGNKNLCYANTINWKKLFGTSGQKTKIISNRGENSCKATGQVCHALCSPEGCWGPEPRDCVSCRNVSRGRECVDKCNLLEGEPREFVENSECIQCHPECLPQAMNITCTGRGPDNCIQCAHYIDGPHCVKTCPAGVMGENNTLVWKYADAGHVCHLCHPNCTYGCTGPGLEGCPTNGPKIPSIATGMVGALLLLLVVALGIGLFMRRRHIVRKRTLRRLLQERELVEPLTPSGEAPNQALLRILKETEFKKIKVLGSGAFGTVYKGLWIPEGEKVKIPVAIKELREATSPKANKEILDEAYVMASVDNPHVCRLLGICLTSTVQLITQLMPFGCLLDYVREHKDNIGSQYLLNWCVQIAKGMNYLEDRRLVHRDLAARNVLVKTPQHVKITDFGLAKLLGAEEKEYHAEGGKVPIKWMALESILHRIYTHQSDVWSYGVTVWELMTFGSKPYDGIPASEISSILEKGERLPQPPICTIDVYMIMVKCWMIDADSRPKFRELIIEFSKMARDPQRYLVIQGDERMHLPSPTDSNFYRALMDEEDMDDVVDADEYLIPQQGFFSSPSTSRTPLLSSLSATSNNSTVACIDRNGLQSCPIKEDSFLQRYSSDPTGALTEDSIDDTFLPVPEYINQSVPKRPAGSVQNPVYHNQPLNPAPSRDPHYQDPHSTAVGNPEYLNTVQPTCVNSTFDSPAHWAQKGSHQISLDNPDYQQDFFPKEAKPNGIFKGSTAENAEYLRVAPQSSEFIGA
Description: as §1, §2, §3, §4, §5

[2] = biological target: Ba/F3-EGFR-L858R T790M cells (Homo sapiens, UniProt P00533, T790M/L858R, cells depend on it); assay: Ba/F3 cell survival assay (Cell Titer-Glo), EGFR-L858R T790M; assay type: cell-based; settings: 48 h, without IL-3, 10 ng/mL EGF; read-out: BA/F3 (L858R T790M) IC50
Sequence of Ba/F3-EGFR-L858R T790M cells (P00533 whole entry T790M/L858R): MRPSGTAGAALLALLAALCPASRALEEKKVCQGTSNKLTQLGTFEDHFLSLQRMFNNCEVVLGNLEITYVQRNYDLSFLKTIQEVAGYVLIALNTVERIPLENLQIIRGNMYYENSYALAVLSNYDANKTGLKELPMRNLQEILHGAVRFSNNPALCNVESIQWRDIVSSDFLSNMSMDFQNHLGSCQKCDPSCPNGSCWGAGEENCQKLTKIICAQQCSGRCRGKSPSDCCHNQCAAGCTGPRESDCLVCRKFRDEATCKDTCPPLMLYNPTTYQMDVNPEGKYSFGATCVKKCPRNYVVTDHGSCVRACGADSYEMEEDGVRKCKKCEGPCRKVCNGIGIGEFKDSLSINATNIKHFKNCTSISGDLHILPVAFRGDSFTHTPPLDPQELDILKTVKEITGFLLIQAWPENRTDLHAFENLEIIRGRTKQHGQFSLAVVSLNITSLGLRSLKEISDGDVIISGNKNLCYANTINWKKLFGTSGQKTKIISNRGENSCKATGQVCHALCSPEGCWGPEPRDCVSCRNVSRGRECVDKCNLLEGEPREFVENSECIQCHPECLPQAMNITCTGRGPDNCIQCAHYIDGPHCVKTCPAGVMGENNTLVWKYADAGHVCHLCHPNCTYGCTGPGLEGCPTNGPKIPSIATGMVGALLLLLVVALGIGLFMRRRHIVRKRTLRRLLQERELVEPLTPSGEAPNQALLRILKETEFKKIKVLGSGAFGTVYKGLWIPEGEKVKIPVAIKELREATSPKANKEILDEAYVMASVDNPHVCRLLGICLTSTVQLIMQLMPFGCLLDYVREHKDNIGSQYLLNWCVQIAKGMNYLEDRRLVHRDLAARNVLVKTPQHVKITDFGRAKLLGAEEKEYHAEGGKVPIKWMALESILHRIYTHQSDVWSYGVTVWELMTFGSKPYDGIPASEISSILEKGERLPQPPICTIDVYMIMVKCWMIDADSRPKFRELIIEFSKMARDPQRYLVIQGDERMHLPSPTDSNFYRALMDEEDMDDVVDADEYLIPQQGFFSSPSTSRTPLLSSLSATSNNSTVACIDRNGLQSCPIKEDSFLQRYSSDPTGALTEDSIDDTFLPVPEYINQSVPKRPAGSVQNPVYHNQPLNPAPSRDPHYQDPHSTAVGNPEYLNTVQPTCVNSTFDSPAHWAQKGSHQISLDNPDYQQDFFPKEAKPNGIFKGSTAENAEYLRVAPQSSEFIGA
Description: as §1, with “EGFR-L858R, EGFR-E746_A750del, EGFR-L858R T790M,” for “WT EGFR”, “EGFR-E746_A750del” for “EGFR-insSVD, or EGFR-insSVD”
as §2, with “Ba/F3-EGFR-L858R, Ba/F3-EGFR-E746_A750del, Ba/F3-EGFR-L858R” for “Ba/F3-EGFR-WT, Ba/F3-EGFR-insSVD, Ba/F3-EGFR-insSVD”, “or Ba/F3-EGFR-E746_A750del T790M.” for “(Ba/F3—vector-control).”
as §3, with “EGFR-L858R, EGFR-E746_A750del, EGFR-L858R T790M,” for “WT EGFR, EGFR-insSVD,”, “EGFR-E746_A750del” for “EGFR-insSVD”
as §4, §5

[3] = biological target: Ba/F3-EGFR-E746_A750del T790M cells (Homo sapiens, UniProt P00533, DEL746-750/T790M, cells depend on it); assay: Ba/F3 cell survival assay (Cell Titer-Glo), EGFR-E746_A750del T790M; assay type: cell-based; settings: 48 h, without IL-3, 10 ng/mL EGF; read-out: BA/F3 (E746_A750del T790M) IC50
Sequence of Ba/F3-EGFR-E746_A750del T790M cells (P00533 with tags, fused parts or gaps DEL746-750/T790M): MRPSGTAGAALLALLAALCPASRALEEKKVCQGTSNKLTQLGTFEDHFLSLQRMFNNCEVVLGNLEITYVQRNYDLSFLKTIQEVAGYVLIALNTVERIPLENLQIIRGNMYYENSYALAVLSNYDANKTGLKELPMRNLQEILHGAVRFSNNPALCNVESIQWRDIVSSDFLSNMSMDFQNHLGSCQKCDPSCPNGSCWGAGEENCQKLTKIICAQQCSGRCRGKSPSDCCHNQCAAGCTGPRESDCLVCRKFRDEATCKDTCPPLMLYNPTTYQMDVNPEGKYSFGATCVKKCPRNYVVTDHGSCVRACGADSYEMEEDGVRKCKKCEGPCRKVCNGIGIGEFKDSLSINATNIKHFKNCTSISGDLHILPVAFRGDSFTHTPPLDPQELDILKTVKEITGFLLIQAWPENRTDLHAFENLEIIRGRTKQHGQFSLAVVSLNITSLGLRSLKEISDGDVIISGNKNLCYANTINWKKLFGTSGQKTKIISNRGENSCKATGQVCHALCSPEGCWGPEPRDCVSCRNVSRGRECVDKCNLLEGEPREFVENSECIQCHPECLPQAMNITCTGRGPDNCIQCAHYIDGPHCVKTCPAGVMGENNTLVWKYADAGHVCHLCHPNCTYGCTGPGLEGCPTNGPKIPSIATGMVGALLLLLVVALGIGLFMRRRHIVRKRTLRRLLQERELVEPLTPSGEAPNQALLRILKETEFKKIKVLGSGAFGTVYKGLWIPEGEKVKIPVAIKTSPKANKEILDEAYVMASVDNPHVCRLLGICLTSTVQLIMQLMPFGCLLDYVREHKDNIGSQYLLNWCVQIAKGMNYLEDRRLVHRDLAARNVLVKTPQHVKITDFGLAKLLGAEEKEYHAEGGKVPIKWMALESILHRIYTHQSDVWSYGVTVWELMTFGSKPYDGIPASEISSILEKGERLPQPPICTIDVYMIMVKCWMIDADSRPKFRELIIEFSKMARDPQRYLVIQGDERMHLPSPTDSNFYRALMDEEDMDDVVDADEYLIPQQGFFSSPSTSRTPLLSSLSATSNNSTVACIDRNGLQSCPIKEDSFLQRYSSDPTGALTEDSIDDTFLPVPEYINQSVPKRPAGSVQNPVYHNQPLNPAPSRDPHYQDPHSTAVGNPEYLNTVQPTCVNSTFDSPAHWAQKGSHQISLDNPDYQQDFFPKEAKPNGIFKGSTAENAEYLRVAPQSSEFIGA
Description: as §1, with “EGFR-L858R, EGFR-E746_A750del, EGFR-L858R T790M,” for “WT EGFR”, “EGFR-E746_A750del” for “EGFR-insSVD, or EGFR-insSVD”
as §2, with “Ba/F3-EGFR-L858R, Ba/F3-EGFR-E746_A750del, Ba/F3-EGFR-L858R” for “Ba/F3-EGFR-WT, Ba/F3-EGFR-insSVD, Ba/F3-EGFR-insSVD”, “or Ba/F3-EGFR-E746_A750del T790M.” for “(Ba/F3—vector-control).”
as §3, with “EGFR-L858R, EGFR-E746_A750del, EGFR-L858R T790M,” for “WT EGFR, EGFR-insSVD,”, “EGFR-E746_A750del” for “EGFR-insSVD”
as §4, §5

Row | SMILES | IC50 [1] | GI50 (Ba/F3-EGFR-insSVD cells) | GI50 (Ba/F3-EGFR-WT cells) | GI50 [2] | GI50 [3]
1 | COc1c(Cl)cccc1Nc1c(-c2ccncc2OCCN(C)C(=O)/C=C/CN(C)C)[nH]c2c1C(=O)NC1(CCC1)C2 [Example 10, (2E)-N-[2-({4-[3′-(3-chloro-2-methoxyanilino)-4′-oxo-1′,4′,5′,7′-tetrahydrospiro[cyclobutane-1,6′-pyrrolo[3,2-c]pyridin]-2′-yl]pyridin-3-yl}oxy)ethyl]-4-(dimethylamino)-N-methylbut-2-enamide] | 0.00355 µM | 0.205 µM | 1.66 µM | > 1 µM | 0.651 µM
2 | C=CC(=O)N(C)CCOc1cnccc1-c1[nH]c2c(c1Nc1cccc(Cl)c1OC)C(=O)NC1(CCC1)C2 [Example 11, N-[2-({4-[3′-(3-chloro-2-methoxyanilino)-4′-oxo-1′,4′,5′,7′-tetrahydrospiro[cyclobutane-1,6′-pyrrolo[3,2-c]pyridin]-2′-yl]pyridin-3-yl}oxy)ethyl]-N-methylprop-2-enamide] | 0.000464 µM | 0.0122 µM | 0.309 µM | 0.198 µM | 0.0258 µM
3 | C=CC(=O)N(C)CCOc1cnccc1-c1[nH]c2c(c1Nc1cccc(Cl)c1OC)C(=O)NC(C)(C)C2 [Example 12, N-[2-({4-[3-(3-chloro-2-methoxyanilino)-6,6-dimethyl-4-oxo-4,5,6,7-tetrahydro-1H-pyrrolo[3,2-c]pyridin-2-yl]pyridin-3-yl}oxy)ethyl]-N-methylprop-2-enamide] | 0.000583 µM | 0.0177 µM | 0.33 µM | 0.276 µM | 0.0474 µM
4 | C=CC(=O)N(C)CCOc1cnccc1-c1[nH]c2c(c1Nc1ccccc1OC(F)F)C(=O)NCC2 [Example 14, N-(2-{[4-(3-{[2-(difluoromethoxy)phenyl]amino}-4-oxo-4,5,6,7-tetrahydro-1H-pyrrolo[3,2-c]pyridin-2-yl)pyridin-3-yl]oxy}ethyl)-N-methylprop-2-enamide] | 0.000571 µM | 0.0354 µM | 0.652 µM | 0.397 µM | 0.0291 µM
